Patent US20160297768A1, “NOVEL IMIDAZOLE DERIVATIVES AND THERAPEUTIC USE THEREOF” (INDUSTRY-ACA-DEMIC COORPERATION FOUNDATION, YONSEI …, priority 2013, published 2016)

Columns and labels:
[1] = test system: A549 cells; assay: Apoptotic activity by MTT analysis, A549 cells; assay type: cell-based; details: 15 μM of the compound, mean±standard deviation; for cytotoxicity at 15 µM: Homo sapiens, A549, 12 h, read-out: Apoptosis (%) A549 cells
Method: (§1) Lung cancer cells (A549), colorectal cancer cells (HCT116), HeLa cells, liver cancer cells (HepG2), T-cell leukemia cells (Jurkat), myeloid leukemia cells (K562), breast cancer cells (MCF-7 and MDA-MB-231) and myelocytic leukemia cells ([…]) were obtained from the American Type Culture Collection (ATCC), and cultured in 10% fetal bovine serum (FBS), 50 units/mL penicillin and 50 units/mL streptomycin-added RPMI 1640 (Invitrogen). The cells were maintained in a humidified 37° C., 5% CO2 atmosphere. The anticancer activity was detected by MTT analysis. Each type of cancer cells were plated in triplicate in a 96-well microtiter plate, and cultured at 37° C. for 24 hours. The cells were treated with each of the compounds prepared above at 37° C. for 12 hours. After the culturing of the cells, 10 μL of an MTT reagent ((3-[4,5-dimethyl-2-thiazolyl]-2,5-diphenyl-2H-tetrazoliumbromide) was added to each well, and cultured for 3.5 hours. The absorbance of each sample was detected using a UV microplate reader (SpectraMax 340PC 384, Molecular Devices) at 570 nm. The detection results were measured as a mean value. The effect of each compound on apoptosis is shown in Table 1.
(§2) The A549 and HeLa cells were treated with 15 μM of the compound for 12 hours. The apoptosis was detected using MTT (mean±standard deviation).

[2] = test system: HeLa cells; assay: Apoptotic activity by MTT analysis, HeLa cells; assay type: cell-based; details: 15 μM of the compound, mean±standard deviation; for cytotoxicity at 15 µM: Homo sapiens, HeLa, 12 h, read-out: Apoptosis (%) HeLa cells
Method: as §1, §2

With `COc1ccc(-c2nc(-c3cc(C(F)(F)F)cc(C(F)(F)F)c3)n(CCOCCOCCN)c2-c2ccc(OC)cc2)cc1` [Example 187, 2-(2-(2-(2-(3,5-bis(trifluoromethyl)phenyl)-4,5-bis(4-methoxyphenyl)-1H-imidazole-1-yl)ethoxy)ethoxy)ethaneamine] the cytotoxicity at 15 µM [1] was 31 ± 0.29% and the cytotoxicity at 15 µM [2] was 12 ± 0.92%.
In the case of `NCCOCCOCCNC(=O)c1ccc(Cn2c(-c3cc(C(F)(F)F)cc(C(F)(F)F)c3)nc(-c3ccc(F)cc3)c2-c2ccc(F)cc2)cc1` [Example 188, N-(2-(2-(2-aminoethoxy)ethoxy)ethyl)-4-((2-(3,5-bis(trifluoromethyl)phenyl)-4,5-bis(4-fluorophenyl)-1H-imidazole-1-yl)methyl)benzamide], the cytotoxicity at 15 µM [1] is reported as 12 ± 0.24% and the cytotoxicity at 15 µM [2] is reported as 19 ± 0.65%.
With `NCCOCCOCCNC(=O)c1ccc(Cn2c(-c3cc(C(F)(F)F)cc(C(F)(F)F)c3)nc(-c3ccc(Cl)cc3)c2-c2ccc(Cl)cc2)cc1` [Example 189, N-(2-(2-(2-aminoethoxy)ethoxy)ethyl)-4-((2-(3,5-bis(trifluoromethyl)phenyl)-4,5-bis(4-chlorophenyl)-1H-imidazole-1-yl)methyl)benzamide] the “Apoptosis (%) A549 cells” value ([1]; 12 hours) was 81 ± 0.45% and the “Apoptosis (%) HeLa cells” value ([2]; 12 hours) was 86 ± 0.64%.
For `COc1ccc(-c2nc(-c3cc(C(F)(F)F)cc(C(F)(F)F)c3)n(Cc3ccc(C(=O)NCCOCCN)cc3)c2-c2ccc(OC)cc2)cc1` [Example 190, N-(2-(2-aminoethoxy)ethyl)-4-((2-(3,5-bis(trifluoromethyl)phenyl)-4,5-bis(4-methoxyphenyl)-1H-imidazole-1-yl)methyl)benzamide], the cytotoxicity at 15 µM [1] was 72 ± 2.88% and the cytotoxicity at 15 µM [2] was 87 ± 0.62%.
In the case of `COc1ccc(-c2nc(-c3cc(C(F)(F)F)cc(C(F)(F)F)c3)n(Cc3ccc(C(=O)NCCCCCCN)cc3)c2-c2ccc(OC)cc2)cc1` [Example 191, N-(6-aminohexyl)-4-((2-(3,5-bis(trifluoromethyl)phenyl)-4,5-bis(4-methoxyphenyl)-1H-imidazole-1-yl)methyl)benzamide], the cytotoxicity at 15 µM [1] is reported as 78 ± 2.43% and the cytotoxicity at 15 µM [2] is reported as 94 ± 1.64%.
With `COc1ccc(-c2nc(-c3cc(C(F)(F)F)cc(C(F)(F)F)c3)n(Cc3ccc(C(=O)NCCCCCCCN)cc3)c2-c2ccc(OC)cc2)cc1` [Example 192, N-(7-aminoheptyl)-4-((2-(3,5-bis(trifluoromethyl)phenyl)-4,5-bis(4-methoxyphenyl)-1H-imidazole-1-yl)methyl)benzamide] the cytotoxicity at 15 µM [1] was 80 ± 1.78% and the cytotoxicity at 15 µM [2] was 93 ± 0.56%.
Work on `COc1ccc(-c2nc(-c3cc(C(F)(F)F)cc(C(F)(F)F)c3)n(Cc3ccc(C(=O)NCCCCCCCCN)cc3)c2-c2ccc(OC)cc2)cc1` [Example 193] yielded a cytotoxicity at 15 µM [1] of 77 ± 1.65% and a cytotoxicity at 15 µM [2] of 94 ± 1.02%.
For `COc1ccc(-c2nc(-c3cc(C(F)(F)F)cc(C(F)(F)F)c3)n(Cc3ccc(C(=O)NCCCCCCCCCN)cc3)c2-c2ccc(OC)cc2)cc1` [Example 194], the cytotoxicity at 15 µM [1] was 80 ± 1.33% and the cytotoxicity at 15 µM [2] was 84 ± 2.01%.
With `COc1ccc(-c2nc(-c3cc(C(F)(F)F)cc(C(F)(F)F)c3)n(Cc3ccc(C(=O)NCCOCCOCCO)cc3)c2-c2ccc(OC)cc2)cc1` [Example 195, 4-((2-(3,5-bis(trifluoromethyl)phenyl)-4,5-bis(4-methoxyphenyl)-1H-imidazole-1-yl)methyl)-N-(2-(2-(2-hydroxyethoxy)ethoxy)ethyl)benzamide] the cytotoxicity at 15 µM [1] was 86 ± 1.29% and the cytotoxicity at 15 µM [2] was 96 ± 0.98%.
`COc1ccc(-c2nc(-c3cc(C(F)(F)F)cc(C(F)(F)F)c3)n(Cc3ccc(C(=O)NCCOCCCOCCN)cc3)c2-c2ccc(OC)cc2)cc1` [Example 196, N-(2-(3-(2-aminoethoxy)propoxy)ethyl)-4-((2-(3,5-bis(trifluoromethyl)phenyl)-4,5-bis(4-methoxyphenyl)-1H-imidazole-1-yl)methyl)benzamide] gave a cytotoxicity at 15 µM [1] of 0% and a cytotoxicity at 15 µM [2] of 0%.
In the case of `COc1ccc(-c2nc(-c3cc(C(F)(F)F)cc(C(F)(F)F)c3)n(Cc3ccc(C(=O)NCCCCCCCCCCN)cc3)c2-c2ccc(OC)cc2)cc1` [Example 197, N-(10-aminodecyl)-4-((2-(3,5-bis(trifluoromethyl)phenyl)-4,5-bis(4-methoxyphenyl)-1H-imidazole-1-yl)methyl)benzamide], the cytotoxicity at 15 µM [1] is reported as 96 ± 0.54% and the cytotoxicity at 15 µM [2] is reported as 97 ± 1.22%.
Work on `COc1ccc(-c2nc(-c3cc(C(F)(F)F)cc(C(F)(F)F)c3)n(Cc3ccc(C(=O)NCCCOCCOCCCN)cc3)c2-c2ccc(OC)cc2)cc1` [Example 198, N-(3-(2-(3-aminopropoxy)ethoxy)propyl)-4-((2-(3,5-bis(trifluoromethyl)phenyl)-4,5-bis(4-methoxyphenyl)-1H-imidazole-1-yl)methyl)benzamide] yielded a cytotoxicity at 15 µM [1] of 80 ± 1.43% and a cytotoxicity at 15 µM [2] of 83 ± 1.07%.
For `COc1ccc(-c2nc(-c3cc(C(F)(F)F)cc(C(F)(F)F)c3)n(Cc3ccc(C(=O)NCCCCCCCCCCCN)cc3)c2-c2ccc(OC)cc2)cc1` [Example 199, N-(11-aminoundecyl)-4-((2-(3,5-bis(trifluoromethyl)phenyl)-4,5-bis(4-methoxyphenyl)-1H-imidazole-1-yl)methyl)benzamide], the cytotoxicity at 15 µM [1] was 89 ± 1.63% and the cytotoxicity at 15 µM [2] was 93 ± 1.72%.
Molecule `COc1ccc(-c2nc(-c3cc(C(F)(F)F)cc(C(F)(F)F)c3)n(Cc3ccc(C(=O)NCCOCCOCCOCCN)cc3)c2-c2ccc(OC)cc2)cc1` [Example 200, N-(2-(2-(2-(2-aminoethoxy)ethoxy)ethoxy)ethyl)-4-((2-(3,5-bis(trifluoromethyl)phenyl)-4,5-bis(4-methoxyphenyl)-1H-imidazole-1-yl)methyl)benzamide] has a cytotoxicity at 15 µM [1] of 85 ± 1.44% and a cytotoxicity at 15 µM [2] of 87 ± 0.78%.
